The source of these data is patent US11793849B2, “Method of Chinese herbal medicine extract used for treating multiple diseases caused by drug resistant bacteria infection” (priority 2016, dated 2023).

In brackets after ≈: the same amount, converted by molar mass. Like-named read-outs stand apart in the source and are kept apart here.

For this assay, the system named is ESBL-producing ECO. Put plainly: MIC determination, microdilution broth method. Format: cell-based, Escherichia coli. Background: Dilution methods test growth across graded concentrations, often in twofold steps.
Where [1] appears, read: EA = 10% ethanol extract, 20 ESBL-producing ECO strains.
Setting [2] is: EA = 60% ethanol extract, 20 ESBL-producing ECO strains.
Where [3] appears, read: EA = 95% ethanol extract, ESBL-producing ECOs.
[4] abbreviates: EA = water extract, 20 ESBL-producing ECO strains.
Where [5] appears, read: single use, 20 ESBL-producing ECOs, section of the 10% ethanol extract.
Setting [6] is: single use, 20 ESBL-producing ECOs, section of the 60% ethanol extract.
[7] abbreviates: single use, 20 ESBL-producing ECOs, section of the 95% ethanol extract.

Description: Determination methods of a Minimal Inhibitory Concentration (MIC) and a Minimum Bactericidal Concentration (MBC) of a test product: the MIC and the MBC of the Pithecellobium clypearia Benth water or ethanol extract to the MDRAB are determined by a microdilution broth method. And it is operated by referring to the microdilution broth method recommended by National Committee for Clinical Laboratory Standards (NCCLS).
By determining the MIC and the MBC of the drug and making statistics of the data to obtain MIC50, MIC90, MBC50 and MBC90, the effect of the MDRA resistance of the drug is evaluated.

Broadly, the MIC50 is the lowest concentration that inhibits either 50% of growth or 50% of the strains tested, depending on the study. By MIC90 is commonly meant an inhibitory concentration at the 90% level, which refers to growth in some studies and to a panel of isolates in others. By MIC is commonly meant the lowest concentration found to suppress growth. A low value points to greater potency. In the case of `NCC[C@H](O)C(=O)N[C@@H]1C[C@H](N)[C@@H](O[C@H]2O[C@H](CN)[C@@H](O)[C@H](O)[C@H]2O)[C@H](O)[C@H]1O[C@H]1O[C@H](CO)[C@@H](O)[C@H](N)[C@H]1O` [AMK, Amikacin], the MIC50 amounted to 16 µg/mL (≈ 27.3 µM) under setting [1]; 16 µg/mL (≈ 27.3 µM) under setting [2]; 16 µg/mL (≈ 27.3 µM) under setting [3]; 16 µg/mL (≈ 27.3 µM) under setting [4]; 16 µg/mL (≈ 27.3 µM) (Escherichia coli, single use, 20 ESBL-producing ECOs, section of the water extract, read-out: MIC50); 16 µg/mL (≈ 27.3 µM) under setting [5]. For the same compound, the MIC50 runs as follows: under setting [6], 16 µg/mL (≈ 27.3 µM); under setting [7], 16 µg/mL (≈ 27.3 µM). For the same compound, the MIC90 runs as follows: under setting [1], 64 µg/mL (≈ 109 µM); under setting [2], 64 µg/mL (≈ 109 µM); under setting [3], 64 µg/mL (≈ 109 µM); under setting [4], 64 µg/mL (≈ 109 µM); (Escherichia coli, single use, 20 ESBL-producing ECOs, section of the water extract, read-out: MIC90) 64 µg/mL (≈ 109 µM); under setting [5], 64 µg/mL (≈ 109 µM). Besides, the MIC90 runs as follows: under setting [6], 64 µg/mL (≈ 109 µM); under setting [7], 64 µg/mL (≈ 109 µM). The “MIC Range” value under setting [1] lay in the range of 4 to 512 µg/mL, the “MIC Range” value under setting [2] lay within 4 to 512 µg/mL, the “MIC Range” value under setting [3] fell in the range of 4 to 512 µg/mL and the “MIC Range” value under setting [4] fell in the range of 4 to 512 µg/mL. For the same compound, under “Escherichia coli”, the minimal inhibitory concentration (MIC) was determined as 128 µg/mL (≈ 219 µM).
